Values quoted from earlier work as cited in US6391849B1, “Method and pharmaceutical composition for disrupting lactation in a mammary gland and for treating and preventing mastitis” (Agricultural Research Organization, The Volcani Center, priority 1999, dated 2002).

Test system: mammary gland
Details: EGTA introduced into the mammary gland

In the case of `O=C(O)CN(CCOCCOCCN(CC(=O)O)CC(=O)O)CC(=O)O` [EGTA], the TJ integrity is given as “transient loss” and the milk yield is given as “transient reduction”.
